The source of these data is ChEMBL document CHEMBL5614437, “Antibacterial and Anti-Inflammatory Activity of Branched Peptides Derived from Natural Host Defense Sequences” (J Med Chem, 2024).

Data set [1] has as its system Escherichia coli. Put plainly: Antibacterial activity against Escherichia coli TG1 incubated for 12 hrs by microdilution method. In kind it is functional. (In general: Dilution methods test growth across graded concentrations, often in twofold steps.)
Another data set deals with Pseudomonas aeruginosa. Put plainly: Antibacterial activity against Pseudomonas aeruginosa ATCC 27853 incubated for 12 hrs by microdilution method. Type of data set: functional.
In data set [2] the test system is Escherichia coli. Put plainly: Antibacterial activity against Escherichia coli clinical isolate LC711/14 incubated for 12 hrs by microdilution method. In kind it is functional.
Data set [3] deals with Erythrocyte. Description: Hemolytic activity in human RBC assessed as hemolysis at ~15 uM incubated for 2 hrs by absorbance based plate reader analysis. Type of data set: toxicity, cell-based.
Data set [4] concerns Klebsiella pneumoniae. Description: Antibacterial activity against Klebsiella pneumoniae ATCC43816 incubated for 12 hrs by microdilution method. In kind it is functional.
The subject of the next data set is Enterococcus faecalis. Put plainly: Antibacterial activity against Enterococcus faecalis 51299 incubated for 12 hrs by microdilution method. Type of data set: functional.
Another data set relates to Staphylococcus aureus. Description: Antibacterial activity against Staphylococcus aureus USA300 incubated for 12 hrs by microdilution method. Type of data set: functional.
For data set [5], the system named is Klebsiella pneumoniae. Description: Antibacterial activity against colistin-resistant Klebsiella pneumoniae incubated for 12 hrs by microdilution method. In kind it is functional.
Data set [6] is described as follows: Stability of compound in human serum at 180 uM measured after 24 hrs by HPLC-MS analysis. Type of data set: ADME, cell-free.
The nature of data set [7]: Stability of compound in human serum at 180 uM measured after 4 hrs by HPLC-MS analysis. Type of data set: ADME, cell-free.
Data set [8] deals with Erythrocyte. Description: Hemolytic activity in human RBC assessed as hemolysis at […] incubated for 2 hrs by absorbance based plate reader analysis. In kind it is toxicity, cell-based.

Converted amounts (≈) assume the structure as drawn. Where a SMILES comes first, the peptide text is derived from it. Bridges are numbered along the chain shown (N, C = ends). Roman numbers before positions name the chains, in order.

A word on the MIC: it is the smallest concentration in the dilution series that meets the test's criterion for growth inhibition. Read a low MIC as a more susceptible organism. For the compound `CC[C@H](C)[C@H](N)C(=O)N[C@@H](CC(N)=O)C(=O)N[C@@H](CC(C)C)C(=O)N[C@@H](CCCCN)C(=O)N[C@@H](CCCCN)C(=O)N[C@@H](CC(C)C)C(=O)N[C@@H](C)C(=O)N[C@@H](CCCCN)C(=O)N[C@@H](CC(C)C)C(=O)NCCCC[C@H](NC(=O)[C@H](CC(C)C)NC(=O)[C@H](CCCCN)NC(=O)[C@H](C)NC(=O)[C@H](CC(C)C)NC(=O)[C@H](CCCCN)NC(=O)[C@H](CCCCN)NC(=O)[C@H](CC(C)C)NC(=O)[C@H](CC(N)=O)NC(=O)[C@@H](N)[C@@H](C)CC)C(=O)NCCCC[C@H](NC(=O)[C@H](CCCCNC(=O)[C@H](CC(C)C)NC(=O)[C@H](CCCCN)NC(=O)[C@H](C)NC(=O)[C@H](CC(C)C)NC(=O)[C@H](CCCCN)NC(=O)[C@H](CCCCN)NC(=O)[C@H](CC(C)C)NC(=O)[C@H](CC(N)=O)NC(=O)[C@@H](N)[C@@H](C)CC)NC(=O)[C@H](CC(C)C)NC(=O)[C@H](CCCCN)NC(=O)[C@H](C)NC(=O)[C@H](CC(C)C)NC(=O)[C@H](CCCCN)NC(=O)[C@H](CCCCN)NC(=O)[C@H](CC(C)C)NC(=O)[C@H](CC(N)=O)NC(=O)[C@@H](N)[C@@H](C)CC)C(N)=O`, the MIC against Escherichia coli [1] was 0.7 µM (≈ 3.14 µg/mL); in the data set with Pseudomonas aeruginosa, 3 µM (≈ 13.5 µg/mL); with Escherichia coli [2], 6 µM (≈ 26.9 µg/mL); against Klebsiella pneumoniae [4], 12 µM (≈ 53.9 µg/mL); with Enterococcus faecalis, greater than 25 µM; against Staphylococcus aureus, greater than 25 µM. Also, the minimal inhibitory concentration (MIC) in the data set with Klebsiella pneumoniae [5] amounted to 6 µM (≈ 26.9 µg/mL). Further, in the data set on Erythrocyte [3], the Activity entry is “Toxic”.
The compound “I: H-LSAARSLAIGRRKK-NH2 / II: H-LSAARSLAIGRRK / III: H-LSAARSLAIGRR / IV: H-LSAARSLAIGRR (amide I:13-IV:C, I:14-II:C, II:13-III:C)” gave a minimal inhibitory concentration (MIC) in the data set on Escherichia coli [1] of 12.5 µM.
For H-GRFKRFRKKL-OH, the Stability result in data set [6] is “Unstable”; in data set [7], “Stable”.
In the data set on Escherichia coli [1], “I: H-ALLKRIKTLLKK-NH2 / II: H-ALLKRIKTLLK / III: H-ALLKRIKTLL / IV: H-ALLKRIKTLL (amide I:11-IV:C, I:12-II:C, II:11-III:C)” gave an MIC of 25 µM.
Turning to “I: H-LSAAHRLAIGRRKK-NH2 / II: H-LSAAHRLAIGRRK / III: H-LSAAHRLAIGRR / IV: H-LSAAHRLAIGRR (amide I:13-IV:C, I:14-II:C, II:13-III:C)”, in the data set with Escherichia coli [1], the MIC stood at 12.5 µM.
In turn, “I: H-KLLKFIKTLLKK-NH2 / II: H-KLLKFIKTLLK / III: H-KLLKFIKTLL / IV: H-KLLKFIKTLL (amide I:11-IV:C, I:12-II:C, II:11-III:C)” gave an MIC in the data set with Escherichia coli [1] of 12.5 µM.
Take “I: H-KLLKRIKTLLKK-NH2 / II: H-KLLKRIKTLLK / III: H-KLLKRIKTLL / IV: H-KLLKRIKTLL (amide I:11-IV:C, I:12-II:C, II:11-III:C)”: the MIC against Escherichia coli [1] was found to be 6 µM; in the data set with Pseudomonas aeruginosa, 6 µM; in the data set on Escherichia coli [2] it was 6 µM; with Klebsiella pneumoniae [4] it was 6 µM; with Enterococcus faecalis it was 25 µM; against Staphylococcus aureus, 3 µM. The compound further showed an MIC in the data set on Klebsiella pneumoniae [5] of 12.5 µM. For the same compound, in the data set with Erythrocyte [8], the Activity entry was “Toxic”.
On to H-KKLLGKNWKLM-OH, for which the Stability entry in data set [6] and in [7] was “Unstable” in each case.
Turning to “I: H-KRLWHKVGPFKK-NH2 / II: H-KRLWHKVGPFK / III: H-KRLWHKVGPF / IV: H-KRLWHKVGPF (amide I:11-IV:C, I:12-II:C, II:11-III:C)”, in the data set on Escherichia coli [1], the MIC is 12.5 µM.
With `CC[C@H](C)[C@H](NC(=O)[C@H](CO)NC(=O)[C@H](CCCCN)NC(=O)[C@H](CC(C)C)NC(=O)[C@H](CCCCN)NC(=O)[C@@H](N)CC(C)C)C(=O)N[C@H](C(=O)N[C@@H](CO)C(=O)N[C@@H](Cc1c[nH]c2ccccc12)C(=O)NCCCC[C@@H]1NC(=O)[C@H](Cc2c[nH]c3ccccc23)NC(=O)[C@H](CO)NC(=O)[C@@H](NC(=O)[C@@H](NC(=O)[C@H](CO)NC(=O)[C@H](CCCCN)NC(=O)[C@H](CC(C)C)NC(=O)[C@H](CCCCN)NC(=O)[C@@H](N)CC(C)C)[C@@H](C)CC)C(C)NCCCC[C@H](NC(=O)[C@H](CC(C)C)NC(=O)[C@H](CCCCN)NC(=O)[C@@H](N)CC(C)C)C(=O)N[C@@H](CO)C(=O)N[C@@H]([C@@H](C)CC)C(=O)N[C@@H](C(C)C)C(=O)N[C@@H](CO)C(=O)N[C@@H](Cc2c[nH]c3ccccc23)C(=O)NCCCC[C@H](NC(=O)[C@H](Cc2c[nH]c3ccccc23)NC(=O)[C@H](CO)NC(=O)[C@@H](NC(=O)[C@@H](NC(=O)[C@H](CO)NC(=O)[C@H](CCCCN)NC(=O)[C@H](CC(C)C)NC(=O)[C@H](CCCCN)NC(=O)[C@@H](N)CC(C)C)[C@@H](C)CC)C(C)C)C(=O)N[C@H](C(N)=O)CCCCNC1=O)C(C)C` (some centres undefined), the MIC against Escherichia coli [1] was determined as 12.5 µM (≈ 57.6 µg/mL).
The same measure, in the same setting: to “I: H-LSAAHSLAIGRRKK-NH2 / II: H-LSAAHSLAIGRRK / III: H-LSAAHSLAIGRR / IV: H-LSAAHSLAIGRR (amide I:13-IV:C, I:14-II:C, II:13-III:C)” belongs 25 µM.
With `CC(C)C[C@H](NC(=O)[C@@H](NC(=O)[C@@H](NC(=O)[C@@H](N)CO)[C@@H](C)O)C(C)C)C(=O)N[C@H](C(=O)N[C@@H](CO)C(=O)N[C@@H](CCCCN)C(=O)N[C@@H](Cc1ccc(O)cc1)C(=O)N[C@@H](CCCNC(=N)N)C(=O)NCCCC[C@H](NC(=O)[C@H](CCCNC(=N)N)NC(=O)[C@H](Cc1ccc(O)cc1)NC(=O)[C@H](CCCCN)NC(=O)[C@H](CO)NC(=O)[C@@H](NC(=O)[C@H](CC(C)C)NC(=O)[C@@H](NC(=O)[C@@H](NC(=O)[C@@H](N)CO)[C@@H](C)O)C(C)C)[C@@H](C)O)C(=O)NCCCC[C@H](NC(=O)[C@H](CCCCNC(=O)[C@H](CCCNC(=N)N)NC(=O)[C@H](Cc1ccc(O)cc1)NC(=O)[C@H](CCCCN)NC(=O)[C@H](CO)NC(=O)[C@@H](NC(=O)[C@H](CC(C)C)NC(=O)[C@@H](NC(=O)[C@@H](NC(=O)[C@@H](N)CO)[C@@H](C)O)C(C)C)[C@@H](C)O)NC(=O)[C@H](CCCNC(=N)N)NC(=O)[C@H](Cc1ccc(O)cc1)NC(=O)[C@H](CCCCN)NC(=O)[C@H](CO)NC(=O)[C@@H](NC(=O)[C@H](CC(C)C)NC(=O)[C@@H](NC(=O)[C@@H](NC(=O)[C@@H](N)CO)[C@@H](C)O)C(C)C)[C@@H](C)O)C(N)=O)[C@@H](C)O` (HELM PEPTIDE1{S.T.V.L.T.S.K.Y.R.K.K.[am]}|PEPTIDE2{S.T.V.L.T.S.K.Y.R.K}|PEPTIDE3{S.T.V.L.T.S.K.Y.R}|PEPTIDE4{S.T.V.L.T.S.K.Y.R}$PEPTIDE1,PEPTIDE4,10:R3-9:R2|PEPTIDE1,PEPTIDE2,11:R3-10:R2|PEPTIDE2,PEPTIDE3,10:R3-9:R2$$$V2.0), in the data set on Escherichia coli [1], the minimum inhibitory concentration (MIC) amounted to 25 µM (≈ 114 µg/mL).
“I: H-GIIDIAKKLFESWKK-NH2 / II: H-GIIDIAKKLFESWK / III: H-GIIDIAKKLFESW / IV: H-GIIDIAKKLFESW (amide I:14-IV:C, I:15-II:C, II:14-III:C)” came in with an MIC against Escherichia coli [1] of 12.5 µM.
Regarding H-TLLKKVLKAAAK-OH, the values for the Stability entry in data set [6] and in data set [7] were “Unstable” and “Stable”, respectively.
In the case of “I: H-INLKAIAALAKKLLKK-NH2 / II: H-INLKAIAALAKKLLK / III: H-INLKAIAALAKKLL / IV: H-INLKAIAALAKKLL (amide I:15-IV:C, I:16-II:C, II:15-III:C)”, it took 12.5 µM to inhibit growth in the data set with Escherichia coli [1] (MIC).
As for H-LLKKVLKAAAK-OH, the Stability entry in data set [6] and in data set [7] was “Unstable” in each case.
